Assay results: PubChem BioAssay (NCI)
Where “and” joins values, the source holds several entries; their conditions need not be identical. Identical values can stand only once.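 48-hour exposure; five concentrations; linearly interpolated endpoints. GI50 = concentration required for 50% inhibition of growth. The concentration for full growth arrest is given as TGI.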

Key:
Assay in all cases: NCI tumour cell line growth inhibition, 48 h
DLD-1 colon = test system: DLD-1 colon
HOP-18 NSCLC = test system: HOP-18 NSCLC
SNB-78 CNS = test system: SNB-78 CNS
DMS 114 small cell lung = test system: DMS 114 small cell lung
RXF-631 renal = test system: RXF-631 renal
LXFL 529 NSCLC = test system: LXFL 529 NSCLC
XF 498 CNS = test system: XF 498 CNS
DMS 273 small cell lung = test system: DMS 273 small cell lung
MDA-N = test system: MDA-N

With `CCCCOC(=O)CNC(=O)OC/C=C/C#CC#C/C=C/COC(=O)NCC(=O)OCCCC` the GI50 (DLD-1 colon) was greater than 100 µM, the TGI (DLD-1 colon) was greater than 100 µM and the TGI (HOP-18 NSCLC) was greater than 10 µM. It also gave a TGI (SNB-78 CNS) greater than 10 µM, a GI50 (DMS 114 small cell lung) greater than 100 µM and a TGI (DMS 114 small cell lung) greater than 100 µM. For the same compound, the GI50 (RXF-631 renal) was greater than 100 µM, the TGI (RXF-631 renal) was greater than 100 µM and the GI50 (LXFL 529 NSCLC) was greater than 100 µM. It also gave a TGI (LXFL 529 NSCLC) greater than 100 µM and a TGI (XF 498 CNS) greater than 10 µM.
`Cc1c2n(c(=O)[nH]c1=O)C1OC(CO)C(O2)C1O` (stereo not given) was tested, and the TGI (DLD-1 colon) was greater than 100 µM, the TGI (SNB-78 CNS) was greater than 100 µM and the TGI (DMS 114 small cell lung) was greater than 100 µM. It also gave a TGI (LXFL 529 NSCLC) greater than 100 µM and a TGI (DMS 273 small cell lung) greater than 100 µM.
Work on `C/C=C/C(CC(O)(C(F)(F)F)C(F)(F)F)=N/NC(N)=S` yielded a TGI (MDA-N) greater than 10 µM.
`O=C1c2ccccc2C(=O)N1CCn1ccc(NC(c2ccccc2)(c2ccccc2)c2ccccc2)nc1=O` was tested, and the TGI (DLD-1 colon) was 38.9 µM, the TGI (HOP-18 NSCLC) was 42.6 µM and the TGI (SNB-78 CNS) was greater than 100 µM. For the same compound, the TGI (DMS 114 small cell lung) was 50 µM, the TGI (RXF-631 renal) was 40.4 µM and the TGI (LXFL 529 NSCLC) was greater than 100 µM. For the same compound, the TGI (DMS 273 small cell lung) was 36.6 µM and the TGI (XF 498 CNS) was 30.3 µM.
For `CC(C)C(CCl)NC(=O)c1cccc(C(=O)N[C@H](CCl)C(C)C)n1` (stereo in doubt), the TGI (DLD-1 colon) was greater than 100 µM, the TGI (SNB-78 CNS) was greater than 100 µM and the TGI (DMS 114 small cell lung) was greater than 100 µM. For the same compound, the TGI (RXF-631 renal) was greater than 100 µM, the TGI (LXFL 529 NSCLC) was greater than 100 µM and the TGI (DMS 273 small cell lung) was greater than 100 µM. For the same compound, the TGI (XF 498 CNS) was greater than 100 µM.
For `CC(=O)CCn1ncc(Cl)c(Cl)c1=O`, the TGI (DLD-1 colon) was 29.9 µM, the TGI (HOP-18 NSCLC) was 30.5 µM and the TGI (SNB-78 CNS) was 43 µM. For the same compound, the TGI (LXFL 529 NSCLC) was 27.3 µM, the TGI (DMS 273 small cell lung) was 32 µM and the TGI (XF 498 CNS) was 35.5 µM.
Work on `CSc1nc(=O)n(CCC#N)nc1SC` yielded a TGI (MDA-N) of 51.4 µM.
`Nc1nc(Cl)cc(NCCCCCCCCNc2cc(Cl)nc(N)n2)n1` was tested, and the TGI (DLD-1 colon) was greater than 100 µM, the TGI (HOP-18 NSCLC) was greater than 100 µM and the TGI (SNB-78 CNS) was greater than 100 µM. For the same compound, the TGI (LXFL 529 NSCLC) was 27.1 µM, the TGI (DMS 273 small cell lung) was greater than 100 µM and the TGI (XF 498 CNS) was 13.7 µM.
In the case of `CN1CC(=O)N2Cc3ccccc3-n3cccc3C2C1` (stereo not given), the TGI (DLD-1 colon) is reported as greater than 100 µM, the TGI (HOP-18 NSCLC) is reported as 91.7 µM and the TGI (SNB-78 CNS) is reported as greater than 100 µM. The TGI (RXF-631 renal) was greater than 100 µM, the TGI (LXFL 529 NSCLC) was greater than 100 µM and the TGI (DMS 273 small cell lung) was greater than 100 µM. It also gave a TGI (XF 498 CNS) greater than 100 µM.
`O=C(O)c1nnsc1-c1ccc(-c2snnc2C(=O)O)cc1` showed a TGI (MDA-N) greater than 100 µM.
`O=c1/c(=C/c2ccccc2[N+](=O)[O-])sc2nnc(-c3ccco3)n12` gave a TGI (DLD-1 colon) of 97.1 µM, a TGI (HOP-18 NSCLC) of 57.8 µM and a TGI (SNB-78 CNS) of 72.3 µM. It also gave a TGI (DMS 114 small cell lung) of 40.4 µM, a TGI (LXFL 529 NSCLC) of 34.5 µM and a TGI (DMS 273 small cell lung) greater than 100 µM. For the same compound, the TGI (XF 498 CNS) was 34.5 µM.
`CCOC(=O)C(C#N)C1=CC(=O)C(=O)c2ccc(OC)cc21` (stereo not given) was tested, and the TGI (MDA-N) was 17.1 µM.
With `CC1(C)CC(=O)C(C=NC(=S)c2ccccc2)=C(O)C1` the TGI (MDA-N) was greater than 100 µM.
In the case of `CCOC(=O)c1ccc(NC(=O)Oc2ccc3c(C)cc(=O)oc3c2)cc1`, the TGI (MDA-N) is reported as greater than 100 µM.
Work on `OC(CC1SCCCS1)c1ccccc1` (stereo not given) yielded a TGI (DLD-1 colon) greater than 100 µM, a TGI (HOP-18 NSCLC) greater than 100 µM and a TGI (DMS 114 small cell lung) greater than 100 µM. The TGI (LXFL 529 NSCLC) was greater than 100 µM, the TGI (DMS 273 small cell lung) was greater than 100 µM and the TGI (XF 498 CNS) was greater than 100 µM.
With `CC(=O)N(C(C)=O)c1ncc(-n2nc(-c3ccccc3)cc2-c2ccccc2)c(-c2ccccc2)n1` the TGI (MDA-N) was 9.42 µM.
`COC(=O)C(C(=O)c1ccccc1)C(C(=O)C(=O)Nc1ccc(OC)cc1OC)C(=O)C(=O)c1ccc(C)cc1` (stereo not given) was tested, and the TGI (DLD-1 colon) was greater than 100 µM, the TGI (HOP-18 NSCLC) was greater than 100 µM and the TGI (SNB-78 CNS) was greater than 100 µM. For the same compound, the TGI (DMS 114 small cell lung) was greater than 100 µM, the TGI (RXF-631 renal) was greater than 100 µM and the TGI (LXFL 529 NSCLC) was greater than 100 µM. The TGI (DMS 273 small cell lung) was greater than 100 µM and the TGI (XF 498 CNS) was greater than 100 µM.
In the case of `Cc1cn2c(=O)c3ncn(C4OC(CO)C(O)C4O)c3n(C)c2n1` (stereo not given), the TGI (DLD-1 colon) is reported as greater than 100 µM, the TGI (HOP-18 NSCLC) is reported as greater than 100 µM and the TGI (SNB-78 CNS) is reported as greater than 100 µM. The TGI (DMS 114 small cell lung) was greater than 100 µM, the TGI (RXF-631 renal) was greater than 100 µM and the TGI (LXFL 529 NSCLC) was greater than 100 µM. The TGI (DMS 273 small cell lung) was greater than 100 µM.
With `CC(=O)CCn1c(=S)sc2ccccc21` the TGI (MDA-N) was greater than 100 µM.
`CO/N=C(\C(=O)OC(=NC1CCCCC1)NC1CCCCC1)c1csc(NC(c2ccccc2)(c2ccccc2)c2ccccc2)n1` showed a TGI (MDA-N) greater than 10 µM.
`Clc1ccc2c(c1)[nH]c1c2nc2ccccn21` was tested, and the GI50 (HOP-18 NSCLC) was 41.9 µM, the TGI (HOP-18 NSCLC) was greater than 100 µM and the TGI (SNB-78 CNS) was 83.9 µM and 61.6 µM. The TGI (RXF-631 renal) was > 100 µM and 69.2 µM, the GI50 (LXFL 529 NSCLC) was 35.9 µM and 16.2 µM and the TGI (LXFL 529 NSCLC) was > 100 µM and 30 µM. For the same compound, the GI50 (XF 498 CNS) was 35.9 µM and 16 µM and the TGI (XF 498 CNS) was 89.1 µM and 29.8 µM.
With `COc1ccc2occ(CCC(=O)O)c2c1` the TGI (DLD-1 colon) was greater than 100 µM, the TGI (HOP-18 NSCLC) was greater than 100 µM and the TGI (SNB-78 CNS) was greater than 100 µM. The TGI (DMS 114 small cell lung) was greater than 100 µM, the TGI (LXFL 529 NSCLC) was greater than 100 µM and the TGI (DMS 273 small cell lung) was greater than 100 µM. It also gave a TGI (XF 498 CNS) greater than 100 µM.
Compound `CCC12CCCN(Cc3ccccc3)C1c1c(n(C)c3ccccc13)CC2` (stereo not given) has a TGI (DLD-1 colon) greater than 253 µM, a TGI (LXFL 529 NSCLC) greater than 253 µM and a TGI (DMS 273 small cell lung) greater than 253 µM.
